Source: ChEMBL document CHEMBL2021828, “An approach for differentiating isozymes. Construction of libraries containing short aromatic peptides as part of a method to design selective inhibitors against lipases” (Bioorg Med Chem Lett, 2012)
pKi: −log10 of the molar value. Active and inactive are the calls of the source. No cut-off for these calls is given here.

What was measured:
[1] = Solubility of the compound in buffer; assay type: physicochemical
Chromobacterium viscosum [2] = assay: Activity of Chromobacterium viscosum lipase using p-nitrophenylbutyrate as substrate by Lineweaver-Burk plot analysis
[3] = target: T1, Lipase (Thermomyces lanuginosus) (UniProt O59952); assay: Activity of Thermomyces lanuginosus lipase using p-nitrophenylbutyrate as substrate by Lineweaver-Burk plot analysis
T1 sequence (whole entry): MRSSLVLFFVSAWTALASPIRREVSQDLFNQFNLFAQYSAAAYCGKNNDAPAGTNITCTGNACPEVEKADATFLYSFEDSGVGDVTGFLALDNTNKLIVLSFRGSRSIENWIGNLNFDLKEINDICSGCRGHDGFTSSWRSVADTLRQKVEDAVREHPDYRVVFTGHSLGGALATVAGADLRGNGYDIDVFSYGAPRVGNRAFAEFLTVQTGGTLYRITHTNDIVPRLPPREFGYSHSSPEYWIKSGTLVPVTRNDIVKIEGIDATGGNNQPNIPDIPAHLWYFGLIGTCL

[4] = target: T2, Pancreatic triacylglycerol lipase (Sus scrofa) (UniProt P00591); assay: Activity of porcine pancreatic lipase using p-nitrophenylbutyrate as substrate by Lineweaver-Burk plot analysis
T2 sequence (whole entry): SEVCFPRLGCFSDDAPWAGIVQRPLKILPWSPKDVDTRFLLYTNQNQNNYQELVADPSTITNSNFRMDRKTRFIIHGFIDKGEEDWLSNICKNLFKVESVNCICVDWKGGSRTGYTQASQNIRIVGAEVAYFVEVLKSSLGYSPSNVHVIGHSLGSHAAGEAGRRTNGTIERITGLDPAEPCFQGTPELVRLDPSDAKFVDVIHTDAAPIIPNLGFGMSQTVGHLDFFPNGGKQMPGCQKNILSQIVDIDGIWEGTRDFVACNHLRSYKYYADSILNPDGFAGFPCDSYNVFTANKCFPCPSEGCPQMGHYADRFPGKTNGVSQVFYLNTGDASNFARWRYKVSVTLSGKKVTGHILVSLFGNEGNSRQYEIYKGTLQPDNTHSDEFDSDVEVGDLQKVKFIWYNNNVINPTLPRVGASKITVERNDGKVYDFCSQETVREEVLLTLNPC

[5] = target: T3, Pancreatic triacylglycerol lipase (Homo sapiens) (UniProt P16233); assay: Activity of human pancreatic lipase using p-nitrophenylbutyrate as substrate by Lineweaver-Burk plot analysis
T3 sequence (whole entry): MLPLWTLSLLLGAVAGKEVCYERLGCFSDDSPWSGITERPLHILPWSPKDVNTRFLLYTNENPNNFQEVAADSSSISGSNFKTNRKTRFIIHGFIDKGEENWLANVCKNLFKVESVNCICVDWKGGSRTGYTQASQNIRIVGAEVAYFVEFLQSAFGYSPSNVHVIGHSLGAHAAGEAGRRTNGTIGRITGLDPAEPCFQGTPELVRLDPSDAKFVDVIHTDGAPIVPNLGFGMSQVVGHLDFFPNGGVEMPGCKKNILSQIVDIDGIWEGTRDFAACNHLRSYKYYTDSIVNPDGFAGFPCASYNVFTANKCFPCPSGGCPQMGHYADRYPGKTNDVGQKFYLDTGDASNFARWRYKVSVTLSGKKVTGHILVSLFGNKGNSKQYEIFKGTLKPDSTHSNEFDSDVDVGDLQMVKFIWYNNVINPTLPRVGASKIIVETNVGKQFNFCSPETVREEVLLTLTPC

[6] = Discrimination ratio of Ki for Thermomyces lanuginosus lipase to Ki for Chromobacterium viscosum lipase
[7] = target: T2, Pancreatic triacylglycerol lipase (Sus scrofa); assay: (§1) Inhibition of porcine pancreatic lipase using p-nitrophenylbutyrate as substrate by Dixon plot analysis
[8] = Inhibition of Chromobacterium viscosum lipase using p-nitrophenylbutyrate as substrate by Dixon plot analysis
[9] = Discrimination ratio of Ki for porcine pancreatic lipase to Ki for Chromobacterium viscosum lipase
[10] = Discrimination ratio of Ki for human pancreatic lipase to Ki for Chromobacterium viscosum lipase
[11] = target: T1, Lipase (Thermomyces lanuginosus); assay: Inhibition of Thermomyces lanuginosus lipase using p-nitrophenylbutyrate as substrate by Dixon pot analysis
[12] = target: T3, Pancreatic triacylglycerol lipase (Homo sapiens); assay: (§2) Inhibition of human pancreatic lipase using p-nitrophenylbutyrate as substrate by Dixon plot analysis
Chromobacterium viscosum [13] = assay: Activity of Chromobacterium viscosum lipase using p-nitrophenylbutyrate as substrate by Lineweaver-Burk plot analysis relative to control
[14] = target: T4, Pancreatic triacylglycerol lipase (Sus scrofa, UniProt P00591); assay: as §1
T4 sequence (P00591 whole entry): T2 sequence (whole entry)

[15] = target: T5, Pancreatic triacylglycerol lipase (Homo sapiens, UniProt P16233); assay: as §2
T5 sequence (P16233 whole entry): T3 sequence (whole entry)

Row | Structure (SMILES) | Activity (Chromobacterium viscosum [2]) | Activity [3] | Activity [4] | Activity [5] | also measured
1 | CCCCCCCCCCOc1ccc(NC(=O)CCC(=O)N[C@@H](Cc2ccccc2)C(=O)N[C@@H](Cc2ccccc2)C(N)=O)cc1 |  |  |  |  | solubility [1]: Insoluble
2 | CCCC(=O)Oc1ccc(NC(=O)CCC(=O)N[C@@H](Cc2c[nH]c3ccccc23)C(=O)N[C@@H](Cc2ccccc2)C(N)=O)cc1 | Active | Active | Active | Active | 
3 | CCCC(=O)Oc1ccc(NC(=O)CCC(=O)N[C@@H](Cc2ccccc2)C(=O)N[C@@H](Cc2ccccc2)C(N)=O)cc1 | Active | Active | Active | Active | Ratio Ki [6]: > 160; inhibition [7]: inactive; Km (Chromobacterium viscosum [2]): 180 µM; pKi [8]: 4.43; Ratio Ki [9]: > 160; Ratio Ki [10]: > 160; inhibition [11]: inactive; inhibition [12]: inactive; fold change (FC) (Chromobacterium viscosum [13]): 20
4 | CCCC(=O)Oc1ccc(NC(=O)CCC(=O)N[C@@H](Cc2c[nH]c3ccccc23)C(=O)N[C@@H](Cc2c[nH]c3ccccc23)C(N)=O)cc1 | Active | Active | Active | Active | 
5 | CCCCOc1ccc(NC(=O)CCC(=O)N[C@@H](Cc2ccc(O)cc2)C(=O)N[C@@H](Cc2ccccc2)C(N)=O)cc1 |  |  |  |  | inhibition [7]: inactive; pKi [14]: 4.15; pKi [15]: 3.77; inhibition [12]: inactive
6 | CCCC(=O)Oc1ccc(NC(=O)CCC(=O)N[C@@H](Cc2ccc(O)cc2)C(=O)N[C@@H](Cc2ccccc2)C(N)=O)cc1 | Active | Active | Active | Active | 
7 | CCCCOc1ccc(NC(=O)CCC(=O)N[C@@H](Cc2ccccc2)C(=O)N[C@@H](Cc2ccc(O)cc2)C(N)=O)cc1 |  |  |  |  | inhibition [7]: inactive; pKi [14]: 3.80; solubility [1]: soluble; pKi [15]: 3.26; inhibition [12]: inactive
8 | CCCC(=O)Oc1ccc(NC(=O)CCC(=O)N[C@@H](Cc2ccc(O)cc2)C(=O)N[C@@H](Cc2ccc(O)cc2)C(N)=O)cc1 | Active | Active | Active | Active | 
9 | CCCCCCCOc1ccc(NC(=O)CCC(=O)N[C@@H](Cc2ccccc2)C(=O)N[C@@H](Cc2ccccc2)C(N)=O)cc1 |  |  |  |  | pKi [14]: 4.41; pKi [8]: 6.43; solubility [1]: Insoluble
10 | NC(=O)[C@H](Cc1ccccc1)NC(=O)[C@H](Cc1ccccc1)NC(=O)CCC(=O)Nc1ccc(O)cc1 |  |  |  |  | Ratio Ki [6]: > 160; pKi [8]: 4.43; Ratio Ki [9]: > 160; Ratio Ki [10]: > 160
11 | CCCCOc1ccc(NC(=O)CCC(=O)N[C@@H](Cc2ccccc2)C(=O)N[C@@H](Cc2ccccc2)C(N)=O)cc1 |  |  |  |  | Ratio Ki [6]: 84; inhibition [7]: inactive; pKi [8]: 5.59; Ratio Ki [9]: 140; Ratio Ki [10]: 140; inhibition [12]: inactive; fold change (FC) (Chromobacterium viscosum [13]): 20
12 | CCCC(=O)Oc1ccc(NC(=O)CCC(=O)N[C@@H](Cc2ccccc2)C(=O)N[C@@H](Cc2c[nH]c3ccccc23)C(N)=O)cc1 | Active | Active | Active | Active | 
13 | CCCC(=O)Oc1ccc(NC(=O)CCC(=O)N[C@@H](Cc2ccc(O)cc2)C(=O)N[C@@H](Cc2c[nH]c3ccccc23)C(N)=O)cc1 | Active | Active | Active | Active | 
14 | CCCC(=O)Oc1ccc([N+](=O)[O-])cc1 |  |  |  |  | Km (Chromobacterium viscosum [2]): 3500 µM
15 | CCCC(=O)Oc1ccc(NC(=O)CCC(=O)N[C@@H](Cc2ccccc2)C(=O)N[C@@H](Cc2ccc(O)cc2)C(N)=O)cc1 | Active | Active | Active | Active | 
16 | CCCC(=O)Oc1ccc(NC(=O)CCC(=O)N[C@@H](Cc2c[nH]c3ccccc23)C(=O)N[C@@H](Cc2ccc(O)cc2)C(N)=O)cc1 | Active | Active | Active | Active | 
